Data: BindingDB's records for doi:10.1016/s0960-894x(00)00166-9 (Universidad Complutense, 2000)

Target: 5-hydroxytryptamine receptor 7 (Rattus norvegicus, UniProt P32305)
Experiment: Binding affinity towards 5-hydroxytryptamine 7 receptor

Sequence of 5-hydroxytryptamine receptor 7 (P32305 whole entry): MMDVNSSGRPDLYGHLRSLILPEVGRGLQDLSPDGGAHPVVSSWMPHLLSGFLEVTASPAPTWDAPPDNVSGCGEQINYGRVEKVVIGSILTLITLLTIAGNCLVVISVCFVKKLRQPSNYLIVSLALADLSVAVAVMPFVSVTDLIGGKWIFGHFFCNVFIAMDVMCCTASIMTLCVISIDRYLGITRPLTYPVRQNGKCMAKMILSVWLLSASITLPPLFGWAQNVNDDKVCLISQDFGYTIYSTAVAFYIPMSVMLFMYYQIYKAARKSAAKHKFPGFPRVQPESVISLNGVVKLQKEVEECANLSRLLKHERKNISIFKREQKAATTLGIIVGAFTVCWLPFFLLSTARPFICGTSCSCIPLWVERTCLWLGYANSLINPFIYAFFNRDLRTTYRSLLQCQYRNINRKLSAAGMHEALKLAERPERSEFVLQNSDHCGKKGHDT

Ki: 63 nM
SMILES: CC(C)(C)[C@]1(O)CCN2C[C@H]3c4ccccc4CCc4cccc(c43)[C@@H]2C1
